Patent US20120238449A1, “SYNERGISTIC HERBICIDAL COMPOSITION CONTAINING PENOXSULAM AND PYROXSULAM” (priority 2011, published 2012)

Key:
Type in all cases: in vivo
[1] = test system: wild oat (Avena fatua, AVEFA); assay: Field trial, percent visual weed control of AVEFA; settings: 28 to 56 days after application
Procedure: (§1) These trials were conducted under field conditions in France, Poland and Syria. Trial sites were located in commercially grown crops wheat, barley and corn. The crops were grown using normal cultural practices for fertilization, seeding, and maintenance to ensure good growth of the crop and the weeds. The trials were conducted using typical small plot herbicide research methodology. Trial plots were between 1 to 2.5 meters (m) wide by 6 to 42 m long. All treatments were applied using a randomized complete block trial design with 2 to 4 replications per treatment. The trial sites had naturally occurring populations of weeds. The weed spectrum included, but was not limited to, wild oat (Avena fatua, AVEFA); Shepherd's purse (Capsella bursa-pastoris, CAPBP); common lambsquarter (Chenopodium album, CHEAL); barnyardgrass (Echinochloa crus-galli, ECHCG); ryegrass (Lolium spp., LOLSS); short-spiked canarygrass (Phalaris brachystachys, PHABR); awned canarygrass (Phalaris paradoxa, PHAPA); narrow-leaved plantain (Plantago lanceolata, PLALA); annual […] (Poa annua, POAAN); and wild buckwheat (Polygonum convolvulus, POLCO).
(§2) Treatments consisted of tank mixes of penoxsulam and pyroxsulam or pyroxsulam+cloquintocet (mexyl) applied in water. Where used, Actirob B adjuvant was applied at use rate of 0.2 to 1 liter per hectare (L/ha) with pyroxsulam containing treatments and in tankmixes. […]

[2] = test system: ryegrass (Lolium spp., LOLSS); assay: Field trial, percent visual weed control of LOLSS; settings: 14 to 61 days after application
Procedure: as §1, §2

[3] = test system: short-spiked canarygrass (Phalaris brachystachys, PHABR); assay: Field trial, percent visual weed control of PHABR; settings: 28 to 56 days after application
Procedure: as §1, §2

[4] = test system: wild buckwheat (Polygonum convolvulus, POLCO); assay: Field trial, percent visual weed control of POLCO; settings: 39-51 days after application
Procedure: as §1, §2

[5] = test system: awned canarygrass (Phalaris paradoxa, PHAPA); assay: Field trial, percent visual weed control of PHAPA; settings: 28 to 56 days after application
Procedure: as §1, §2

[6] = test system: Shepherd's purse (Capsella bursa-pastoris, CAPBP); assay: Field trial, percent visual weed control of CAPBP; settings: 39-51 days after application
Procedure: as §1, §2

[7] = test system: barnyardgrass (Echinochloa crus-galli, ECHCG); assay: Field trial, percent visual weed control of ECHCG; settings: 39-51 days after application
Procedure: as §1, §2

[8] = test system: annual blackgrass (Poa annua, POANN); assay: Field trial, percent visual weed control of POANN; settings: 14 to 61 days after application
Procedure: as §1, §2

[9] = test system: narrow-leaved plantain (Plantago lanceolata, PLALA); assay: Field trial, percent visual weed control of PLALA; settings: 14 to 61 days after application
Procedure: as §1, §2

[10] = test system: common lambsquarter (Chenopodium album, CHEAL); assay: Field trial, percent visual weed control of CHEAL; settings: 39-51 days after application
Procedure: as §1, §2

COc1cc(OC)n2nc(NS(=O)(=O)c3c(C(F)(F)F)ccnc3OC)nc2n1 [Pyroxsulam, N-(5,7-dimethoxy[1,2,4]triazolol1,5-alpyrimidin-2-yl)-2-methoxy-4-(trifluoromethyl)-3-pyridinesulfonamide]
Control of AVEFA, Obs (Observed Response) ([1]; pyroxsulam 18 g ai/ha alone): 65%
Control of LOLSS, Obs (Observed Response) ([2]; pyroxsulam 20 g ai/ha alone): 0%
Control of PHABR, Obs (Observed Response) ([3]; pyroxsulam 18 g ai/ha alone): 38%
Control of POLCO, Obs (Observed Response) ([4]; pyroxsulam 4 g ai/ha alone): 35%
Control of PHAPA, Obs (Observed Response) ([5]; pyroxsulam 18 g ai/ha alone): 80%
Control of CAPBP, Obs (Observed Response) ([6]; pyroxsulam 4 g ai/ha alone): 70%
Control of ECHCG, Obs (Observed Response) ([7]; pyroxsulam 4 g ai/ha alone): 65%
Control of POANN, Obs (Observed Response) ([8]; pyroxsulam 20 g ai/ha alone): 0%
Control of PLALA, Obs (Observed Response) ([9]; pyroxsulam 20 g ai/ha alone): 7%
Control of CHEAL, Obs (Observed Response) ([10]; pyroxsulam 4 g ai/ha alone): 65%

COc1cnc(OC)n2nc(NS(=O)(=O)c3c(OCC(F)F)cccc3C(F)(F)F)nc12 [Penoxsulam, 2-(2,2-difluoroethoxy)-N-(5,8-dimethoxy-[1,2,4]triazolol1,5-clpyrimidin-2-yl)-6-(trifluoromethyl)benzenesulfonamide]
Control of AVEFA, Obs (Observed Response) ([1]; penoxsulam 20 g ai/ha alone): 0%
Control of LOLSS, Obs (Observed Response) ([2]; penoxsulam 20 g ai/ha alone): 20%
Control of PHABR, Obs (Observed Response) ([3]; penoxsulam 20 g ai/ha alone): 0%
Control of POLCO, Obs (Observed Response) ([4]; penoxsulam 5 g ai/ha alone): 50%
Control of PHAPA, Obs (Observed Response) ([5]; penoxsulam 20 g ai/ha alone): 0%
Control of CAPBP, Obs (Observed Response) ([6]; penoxsulam 5 g ai/ha alone): 20%
Control of ECHCG, Obs (Observed Response) ([7]; penoxsulam 5 g ai/ha alone): 0%
Control of POANN, Obs (Observed Response) ([8]; penoxsulam 20 g ai/ha alone): 17%
Control of PLALA, Obs (Observed Response) ([9]; penoxsulam 20 g ai/ha alone): 13%
Control of CHEAL, Obs (Observed Response) ([10]; penoxsulam 5 g ai/ha alone): 10%
